In ChEMBL document CHEMBL1201862, “PubChem BioAssay data set” (2004):
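Grown in 96-well plates, cells were treated for 48 hours with each compound at five concentrations. Insufficient inhibition: endpoint recorded as highest concentration tested. GI50 is the concentration that inhibits growth by half.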 Activity calls are given as the source filed them. No stated cut-off is given here; in the data, active = GI50 up to about 1.1 µM and inactive = higher.

Experiments:
Test in all cases: growth of human tumour cells (NCI), 48 h
[1] = tested on: CAKI-1
[2] = tested on: DU-145
[3] = tested on: HCT-116
[4] = tested on: HOP-62
[5] = tested on: KM12
[6] = tested on: MCF7
[7] = tested on: NCI-H226
[8] = tested on: NCI-H23
[9] = tested on: NCI/ADR-RES
[10] = tested on: OVCAR-4
[11] = tested on: PC-3
[12] = tested on: RPMI-8226
[13] = tested on: RXF 393
[14] = tested on: SNB-19
[15] = tested on: SR
[16] = tested on: SW-620
[17] = tested on: UACC-257
[18] = tested on: UACC-62
[19] = tested on: UO-31
[20] = tested on: NCI-H522

| Compound | GI50 [1] | GI50 [2] | GI50 [3] | GI50 [4] | GI50 [5] | GI50 [6] | GI50 [7] | GI50 [8] | GI50 [9] | GI50 [10] | GI50 [11] | GI50 [12] | GI50 [13] | GI50 [14] | GI50 [15] | GI50 [16] | GI50 [17] | GI50 [18] | GI50 [19] | GI50 [20] |
| --- | --- | --- | --- | --- | --- | --- | --- | --- | --- | --- | --- | --- | --- | --- | --- | --- | --- | --- | --- | --- |
| CCN(CC)c1ccc(/C=c2\nc(-c3ccccc3)n3c2nc2ccccc23)cc1 | 0.885 µM (active) | 26.8 µM (inactive) | 3.64 µM (inactive) | 7.19 µM (inactive) | 6.47 µM (inactive) | 14.6 µM (inactive) | 14.5 µM (inactive) | 20 µM (inactive) | 3.98 µM (inactive) | 3.17 µM (inactive) | 1.93 µM (inactive) | 1.48 µM (inactive) | 16.8 µM (inactive) | 83.8 µM (inactive) | 1.68 µM (inactive) | 4.7 µM (inactive) | 21.9 µM (inactive) | 10.5 µM (inactive) | 13.5 µM (inactive) |  |
| O=C1Nc2cc([N+](=O)[O-])ccc2N/C1=C/C(=O)c1ccc(Cl)cc1 | 17.6 µM (inactive) | 6.71 µM (inactive) | 3.24 µM (inactive) |  | 14.4 µM (inactive) | 11.2 µM (inactive) | 19.5 µM (inactive) | 14.2 µM (inactive) | 7.71 µM (inactive) | 20.4 µM (inactive) | 16.6 µM (inactive) | 10.9 µM (inactive) | 3.39 µM (inactive) | 11.2 µM (inactive) | 12.2 µM (inactive) | 13.9 µM (inactive) | 27.5 µM (inactive) | 14.9 µM (inactive) | 25.1 µM (inactive) |  |
| COc1nc2c(c(=O)n1C)N[C@H]1[C@H](OC(C)=O)[C@@H](OC(C)=O)CO[C@H]1N2 | > 100 µM (inactive) | > 100 µM (inactive) | > 100 µM (inactive) | > 100 µM (inactive) | > 100 µM (inactive) | > 100 µM (inactive) | > 100 µM (inactive) |  | > 100 µM (inactive) | > 100 µM (inactive) | > 100 µM (inactive) | > 100 µM (inactive) | > 100 µM (inactive) | > 100 µM (inactive) | > 100 µM (inactive) | > 100 µM (inactive) | > 100 µM (inactive) | > 100 µM (inactive) | > 100 µM (inactive) | > 100 µM (inactive) |
| O=[N+]([O-])c1ccc2c(c1)nc1n2C(c2c(F)cccc2F)SC1 (configuration not stated) |  | > 100 µM (inactive) | > 100 µM (inactive) | > 100 µM (inactive) | > 100 µM (inactive) | > 100 µM (inactive) |  | > 100 µM (inactive) | > 100 µM (inactive) | > 100 µM (inactive) | > 100 µM (inactive) | > 100 µM (inactive) | > 100 µM (inactive) | > 100 µM (inactive) | > 100 µM (inactive) | > 100 µM (inactive) | > 100 µM (inactive) | > 100 µM (inactive) |  | > 100 µM (inactive) |
| Cc1nc(SCC(=O)Nc2ccccc2)c2sc(=S)n(-c3ccccc3)c2n1 | > 10 µM (inactive) | > 10 µM (inactive) | > 10 µM (inactive) | 8.71 µM (inactive) | > 10 µM (inactive) | > 10 µM (inactive) | 2.9 µM (inactive) | > 10 µM (inactive) | > 10 µM (inactive) | 5.62 µM (inactive) | > 10 µM (inactive) | > 10 µM (inactive) | > 10 µM (inactive) | 8.41 µM (inactive) | > 10 µM (inactive) | > 10 µM (inactive) | > 10 µM (inactive) | > 10 µM (inactive) |  | > 10 µM (inactive) |
| COC(=O)[C@]1(C)[C@H]2C[C@H]3O[C@H]4[C@H](O)[C@@H](O)OC(CC(O)C(C5=CC(=O)OC5)C(C5=CC(=O)OC5)C(O)CC56CCCCC7[C@@H](C)[C@H](C[C@H]8[C@](C)(C(=O)OC)[C@H](O)CC[C@]78C)O[C@H]([C@@H](O)[C@H](O)O5)[C@H]6O)(CCCCC([C@@H]3C)[C@]2(C)CC[C@@H]1O)[C@H]4O (some centres not stated) | 0.0488 µM (active) | 0.0628 µM (active) | 0.0404 µM (active) | 0.065 µM (active) | 0.353 µM (active) | 0.111 µM (active) | 0.973 µM (active) | 0.0439 µM (active) | 0.0973 µM (active) | 0.147 µM (active) | 0.065 µM (active) |  | 0.0356 µM (active) | 0.372 µM (active) | 0.0545 µM (active) | 0.168 µM (active) | 0.244 µM (active) | 0.33 µM (active) | 0.057 µM (active) | < 0.01 µM (active) |
| O=C1C(CN2CCCCC2)CCC1CN1CCCCC1 (configuration not stated) | 9.48 µM (inactive) | > 88.5 µM (inactive) | 24.5 µM (inactive) | > 100 µM (inactive) | > 54.7 µM (inactive) | 21.9 µM (inactive) | > 96.6 µM (inactive) | 23.1 µM (inactive) | 37.4 µM (inactive) |  | 27.1 µM (inactive) | 9.91 µM (inactive) | 14.8 µM (inactive) | > 100 µM (inactive) | 1.6 µM (inactive) | 6.37 µM (inactive) | 30.3 µM (inactive) | 17.3 µM (inactive) | 15 µM (inactive) | 5.35 µM (inactive) |
| CC1=CCC[C@H]2[C@](C)(CC3=CC(=O)C4SCCSC4C3=O)[C@@H](C)CC[C@]12C (some centres not stated) | 25.2 µM (inactive) | 24.5 µM (inactive) | 13.8 µM (inactive) | 15 µM (inactive) | 29 µM (inactive) | 20.5 µM (inactive) | 15.9 µM (inactive) | 13.2 µM (inactive) | 19.1 µM (inactive) | 24.6 µM (inactive) | 13.5 µM (inactive) | 14.1 µM (inactive) | 18.6 µM (inactive) | 19 µM (inactive) | 11.1 µM (inactive) | 17.1 µM (inactive) | 19.3 µM (inactive) | 14.8 µM (inactive) | 17.6 µM (inactive) |  |
| Oc1cc(-c2cccc(OC(F)(F)F)c2)nc2ccc(N3CCCC3)cc12 | 0.01 µM (active) | 0.000316 µM (active) | 0.000121 µM (active) | 0.000441 µM (active) | 0.000129 µM (active) | 0.0337 µM (active) | 0.000142 µM (active) | 0.0191 µM (active) | 0.00016 µM (active) |  | 0.000318 µM (active) | 0.000261 µM (active) | 0.000116 µM (active) | 0.00018 µM (active) | < 0.0001 µM (active) | 0.00019 µM (active) | < 0.0001 µM (active) | < 0.0001 µM (active) | 0.000555 µM (active) | 0.000376 µM (active) |
| CSc1nc(=O)c2nc(-c3cccs3)c(-c3cccs3)nc2n1C | 39.6 µM (inactive) | 34.3 µM (inactive) | > 100 µM (inactive) | 20 µM (inactive) | > 100 µM (inactive) | 24 µM (inactive) |  | 55.8 µM (inactive) | 50.2 µM (inactive) | 30.7 µM (inactive) | 40.9 µM (inactive) | > 100 µM (inactive) | 18.7 µM (inactive) | 29.8 µM (inactive) | > 100 µM (inactive) | > 100 µM (inactive) | > 100 µM (inactive) | 41.7 µM (inactive) | 33.7 µM (inactive) | 31 µM (inactive) |
| Cc1ccc(NC(=O)/C(Cc2cc(=O)oc3cc(O)ccc23)=N\NC(C)(C)C)cc1C | > 100 µM (inactive) | > 100 µM (inactive) | > 100 µM (inactive) |  | > 100 µM (inactive) | > 100 µM (inactive) | > 100 µM (inactive) | > 100 µM (inactive) | > 100 µM (inactive) | 68.9 µM (inactive) | > 100 µM (inactive) | > 100 µM (inactive) | > 100 µM (inactive) | > 100 µM (inactive) | > 100 µM (inactive) | > 100 µM (inactive) | > 100 µM (inactive) | > 100 µM (inactive) | > 100 µM (inactive) |  |
| Cn1c2ccccc2n2c(N=O)c(-c3ccccc3)nc12 | 39.7 µM (inactive) | 23.7 µM (inactive) | 87.9 µM (inactive) | 5.52 µM (inactive) | 15.2 µM (inactive) | 29 µM (inactive) |  | 18.3 µM (inactive) | 18.4 µM (inactive) | 62.4 µM (inactive) | 96.6 µM (inactive) | 90.8 µM (inactive) | 49.3 µM (inactive) | 30.1 µM (inactive) | 55.1 µM (inactive) | 72.8 µM (inactive) | 34.3 µM (inactive) | 56.5 µM (inactive) | 32.5 µM (inactive) | 57.5 µM (inactive) |
| O=C1/C(=C\c2cccc(Oc3ccccc3)c2)S(=O)(=O)C(c2ccccc2)N1c1cccc(Cl)c1 (configuration not stated) | 78.2 µM (inactive) | 65.5 µM (inactive) | 29.4 µM (inactive) | 98.2 µM (inactive) | 58.1 µM (inactive) | 30.2 µM (inactive) |  | 51.4 µM (inactive) | 35.4 µM (inactive) | 98.9 µM (inactive) | > 100 µM (inactive) | 25.9 µM (inactive) | 36.3 µM (inactive) | 68.9 µM (inactive) | 20.9 µM (inactive) | 25.1 µM (inactive) | 74.6 µM (inactive) | 57.7 µM (inactive) | 34.7 µM (inactive) | 26.8 µM (inactive) |
| Clc1ccc(-c2nnc(-c3c(Cl)c(Cl)c(Cl)c(Cl)c3-c3nc4ccccc4[nH]3)o2)cc1 | 56.1 µM (inactive) | 78.2 µM (inactive) | 31.6 µM (inactive) | > 100 µM (inactive) | 97.5 µM (inactive) | 35.1 µM (inactive) | 54.5 µM (inactive) | 45 µM (inactive) | 47.4 µM (inactive) | 84.9 µM (inactive) | 97.5 µM (inactive) | 31.8 µM (inactive) | 40.7 µM (inactive) |  | 34.3 µM (inactive) | > 100 µM (inactive) | > 100 µM (inactive) | 63.4 µM (inactive) | 42.7 µM (inactive) | 47.9 µM (inactive) |
